Data from ChEMBL document CHEMBL1201862, “PubChem BioAssay data set” (2004).
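Following 48 hours of exposure in 96-well plates, responses at five concentrations were used to interpolate endpoints linearly. The concentration for 50% growth inhibition is given as GI50.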 The source made the active and inactive calls. No stated cut-off is given here; in the data, active = GI50 up to about 1.1 µM and inactive = higher.

Key:
Test in all cases: NCI-60 cell line screen, 48 h
[1] = system: UO-31
[2] = system: SF-268
[3] = system: RXF 393
[4] = system: SR
[5] = system: Malme-3M
[6] = system: SN12C
[7] = system: EKVX
[8] = system: KM12
[9] = system: A498
[10] = system: M19-MEL
[11] = system: NCI-H460
[12] = system: A549
[13] = system: CAKI-1
[14] = system: DLD-1
[15] = system: HOP-62
[16] = system: IGROV-1
[17] = system: RPMI-8226
[18] = system: TK-10
[19] = system: SNB-78
[20] = system: OVCAR-8
[21] = system: HCT-116
[22] = system: M14
[23] = system: 786-0
[24] = system: SF-295
[25] = system: OVCAR-5
[26] = system: SF-539
[27] = system: SNB-19
[28] = system: CCRF-CEM
[29] = system: OVCAR-4
[30] = system: HT-29
[31] = system: UACC-62
[32] = system: NCI-H522
[33] = system: COLO 205
[34] = system: XF498
[35] = system: UACC-257
[36] = system: K562
[37] = system: HCC 2998
[38] = system: MOLT-4
[39] = system: SW-620
[40] = system: ACHN
[41] = system: NCI-H23
[42] = system: SK-MEL-2
[43] = system: OVCAR-3
[44] = system: U-251
[45] = system: NCI-H226
[46] = system: KM-20L2
[47] = system: HOP-92
[48] = system: SNB-75
[49] = system: LOX IMVI
[50] = system: SK-OV-3
[51] = system: SK-MEL-5
[52] = system: SK-MEL-28
[53] = system: LXFL 529
[54] = system: HCT-15
[55] = system: HL-60

Measured: GI50

Oc1cc(CN2CCOCCOCCOCCOCC2)c(O)cc1CN1CCOCCOCCOCCOCC1
34.9 µM: [54]
inactive: [1] > 71.3 µM | [2] > 56.5 µM | [3] 23.8 µM | [4] 20.3 µM | [5] > 10 µM | [6] > 10 µM | [7] > 100 µM | [8] > 100 µM | [9] > 75.3 µM | [10] 14.1 µM | [11] > 100 µM | [12] > 100 µM | [13] 18.1 µM | [14] 22.1 µM | [15] > 100 µM | [16] > 78 µM | [17] 26.2 µM | [18] > 56.2 µM | [19] > 57.1 µM | [20] 40.5 µM | [21] 22.9 µM | [22] 18.3 µM | [23] 27.2 µM | [24] > 100 µM | [25] 22.8 µM | [26] > 100 µM | [27] > 100 µM | [28] 18.6 µM | [29] 18.4 µM | [30] > 47.2 µM | [31] 29.2 µM | [32] 11.8 µM | [33] 21.2 µM | [34] 22 µM | [35] > 100 µM | [36] 24.4 µM | [37] > 100 µM | [38] 24.3 µM | [39] 24.4 µM | [40] 23.9 µM | [41] > 78.5 µM | [42] > 50.7 µM | [43] 61.8 µM | [44] > 41.5 µM | [45] > 61.5 µM | [46] > 50.6 µM | [47] 21.2 µM | [48] > 78.7 µM | [49] 24.5 µM | [50] > 100 µM | [51] > 61.2 µM | [52] 24 µM | [53] 21.1 µM | [55] 23.8 µM

CC(C)(C=O)CC(C#N)/C(=N\NC(N)=O)C(=O)Nc1ccccc1C(N)=O (stereo unspecified)
inactive: [1] > 100 µM | [2] > 100 µM | [4] > 100 µM | [5] > 100 µM | [6] > 100 µM | [7] > 100 µM | [8] > 100 µM | [9] > 100 µM | [10] > 100 µM | [11] > 100 µM | [12] > 100 µM | [13] > 100 µM | [15] > 100 µM | [16] > 100 µM | [17] > 100 µM | [18] > 100 µM | [19] > 100 µM | [20] > 100 µM | [21] > 100 µM | [22] > 100 µM | [23] > 100 µM | [24] > 100 µM | [25] > 100 µM | [26] > 100 µM | [27] > 100 µM | [28] > 100 µM | [29] > 100 µM | [30] > 100 µM | [31] > 100 µM | [32] > 100 µM | [34] > 100 µM | [35] > 100 µM | [36] > 100 µM | [37] > 100 µM | [38] > 100 µM | [39] > 100 µM | [40] > 100 µM | [41] > 100 µM | [42] > 100 µM | [43] > 100 µM | [44] > 100 µM | [45] > 100 µM | [46] > 100 µM | [47] 38.6 µM | [49] > 100 µM | [50] > 100 µM | [51] > 100 µM | [52] > 100 µM | [53] > 100 µM | [55] > 100 µM
> 100 µM: [54]
